Tested on: M. tuberculosis H37Rv growth with meropenem, percent inhibition
Assay: beta-lactam sensitization of Mtb H37Rv, H37Rv (AID 434955)

Row | SMILES | IC90 [µM]
1 | O=C(NCC1COc2ccccc2O1)C1CCC(CNc2c(N3CCCCC3)c(=O)c2=O)CC1 (stereo unspecified) | 26.7
2 | O=c1cc(C(F)(F)F)c2sc(N3CCCCC3)nc2[nH]1 | 49.3
3 | Cc1cc(C(=O)CSc2nnnn2-c2ccccc2)c(C)n1-c1ccc2c(c1)OCO2 | 60.9
4 | COc1ccc(NC(=O)c2cc(C)nc3ccccc23)c(OC)c1 | 12.9
5 | O=C(/C=C/c1cccnc1)c1ccc(O)cc1 | 50.4
6 | O=C(/C=C/c1ccc([N+](=O)[O-])cc1)c1cccs1 | 12.2
7 | C/C(=N/NC(=O)c1cccs1)c1c(C)[nH]n(-c2nc3ccccc3s2)c1=O | 1.58
8 | C=C(C)C(=O)O[C@H]1C/C(C)=C\C(=O)/C=C(\C)[C@H](O)[C@@H]2OC(=O)C(=C)[C@@H]21 | 31.3
9 | Cc1ccc(C2=N/C(=C\c3cccc(F)c3)C(=O)O2)cc1 | 4.02
10 | COc1ccc(/C=C/C(=O)N(C(C)C)C(C)C)cc1Br | 96.4
11 | Cc1cc(C)cc(SCc2noc(C(=O)NC(C)C)c2C(=O)O)c1 | 27.3
12 | Cc1cc(C)c(OCC(=O)Nc2nc3ccccc3[nH]2)c(C)c1 | 65.2
13 | O=C(N/N=C/c1ccc(OC(=O)c2ccc3c(c2)OCO3)cc1)c1cncc(Br)c1 | 48.3
14 | CCCCCCCN(C(=O)CCl)c1ccccc1C | 35.2
15 | COc1cccc(/C=C/c2[nH]c(=O)[nH]c(=O)c2[N+](=O)[O-])c1O | 15.9
16 | O=C1C(Cl)=C(N2CCCCCC2)C(=O)N1c1ccc(Br)cc1 | 19.4
17 | S=C(NN=C1C2CC3CC(C2)CC1C3)Nc1ccccc1 | 51.4
18 | CCOC(=O)N1CCN(CC(=O)Nc2nnc(C(F)(F)F)s2)CC1 | 50.1
19 | CCOC(=O)c1nc(N2CCN(C(=O)OCC)CC2)c2c3c(sc2n1)CCCC3 | 40.9
20 | CN(C)C1=C(Cl)C(=O)N(c2ccc(Cl)c(Cl)c2)C1=O | 14.9
21 | Cc1nn(-c2ccccc2)c(N2CCCC2)c1/C=C1\N=C(c2ccc(F)cc2)OC1=O | 22.9

Row | SMILES | IC90 [µM]
22 | CCCc1cc(NC(=O)COC(=O)c2nccnc2N)n(-c2ccccc2)n1 | 50.8
23 | O=C(Nc1ccccc1)Nc1csc2ccccc12 | 20.9
24 | CCCC(C)NC(=O)c1ccc(OCc2ccc(Cl)cc2)c(OC)c1 (stereo unspecified) | 11.6
25 | C/C(=N\OCC(=O)Nc1nc2ccccc2s1)c1ccccc1 | 35.6
26 | CO/N=C(\C(=O)N[C@@H]1C(=O)N2C(C(=O)O)=C(COC(C)=O)CS[C@H]12)c1csc(N)n1 (stereo in doubt) | 41.7
27 | Cc1cc(C=C2C(=O)NC(=S)NC2=O)c(C)n1-c1ccc2c(c1)OCO2 | 14.5
28 | CC1CCCN(S(=O)(=O)c2ccc(C(=O)Nc3nnc(-c4ccncc4)o3)cc2)C1 (stereo unspecified) | 64.8
29 | O=C1c2ccccc2N2C(=O)c3ccccc3C2N1O (stereo unspecified) | 56.4
30 | O=C(CN1CCC(O)(c2ccc3c(c2)OCO3)CC1)OC1CCCCC1 | 35.3
31 | O=C(Nc1cccc(Cl)c1N1CCOCC1)c1ccc([N+](=O)[O-])o1 | 38.2
32 | Cc1ccc(Nc2nc(N)nc(CC#N)n2)cc1 | 92.7
33 | COc1cc(NC(=O)c2cccc(Cl)c2)c(OC)cc1NC(=O)CN1CCCCC1 | 75.5
34 | Cc1cc(C)cc(NC(=O)c2cc(Cl)sc2Cl)c1 | 7.73
35 | O=C(c1ccc(-c2ccc(Cl)cc2)o1)N1CCN(S(=O)(=O)c2cccs2)CC1 | 99.6
36 | CC(C)(C)c1ccc(OCc2ccc(C(=O)N/N=C3\CC4CC=CC34)cc2)cc1 (stereo unspecified) | 45.3
37 | COC(=O)c1sc(-c2ccc(Cl)cc2)cc1NC(=O)COCC(=O)O | 44.8
38 | O=C(Cn1cnc2sc3c(c2c1=O)CCCC3)NCC(=O)Nc1ccccc1F | 95.5
39 | Cc1ccc(S(=O)(=O)Nc2cccc3cccnc23)c([N+](=O)[O-])c1 | 4.7
40 | Cc1cc(=O)[nH]c(N/N=C/c2c(F)c(F)c(F)c(F)c2F)n1 | 82.3
41 | CC(C)C[C@H](NC(=O)c1nc[nH]c1C(=O)N1CCN(C(=O)OC(C)(C)C)CC1)C(=O)OCc1ccccc1 | 54.9
42 | O=C(O)CCN1C(=O)/C(=C/c2ccc(-c3nc4ccccc4s3)o2)SC1=S | 78.4

Row | SMILES | IC90 [µM]
43 | CCc1cc(C(N)=S)ccn1 | 12.8
44 | Cc1ccc(SCCNC(=O)c2ccc(C)c([N+](=O)[O-])c2)cc1 | 54
45 | O=C(Nc1nc2ccccc2n1CCN1CCCC1)C1CCCCC1 | 27.5
46 | Cn1ccnc1C(=O)Cc1ccc([N+](=O)[O-])cc1 | 22.6
47 | Cc1onc(-c2ccccc2Cl)c1C(=O)NCc1ccc2c(c1)cc(C)n2C | 29.4
48 | O=c1oc(-c2ccco2)nc2sc3c(c12)CCCCC3 | 38.5
49 | CN(C)CCCN(C(=O)/C=C/c1cccs1)c1nc2ccc(F)cc2s1 | 48.4
50 | O=C(NN1C(=O)C2C(C1=O)C1C=CC2C12CC2)c1ccncc1 (stereo unspecified) | 13.9
51 | CCCOc1ccccc1NC(=O)/C=C/C(N)=O | 27.7
52 | COc1ccccc1N1CCN(CC(=O)Nc2cc(F)ccc2C)CC1 | 91
53 | Cc1ccccc1CSc1nnc(C)c(=O)n1N | 32.3
54 | CC[C@@](C)(NS(=O)(=O)OCC(Cl)(Cl)Cl)c1ccccc1 | 54.8
55 | Cc1ccc(C(=O)Nc2c(C)cc(C)c3cccnc23)cc1 | 10.5
56 | O=[N+]([O-])c1cc(C(F)(F)F)ccc1NCCc1c[nH]c2ccc(O)cc12 | 72.9
57 | Cc1cc(C2C(=O)c3ccccc3C2=O)c(C)c(C)c1C | 16.4
58 | CCCCN(C)Cc1cc(=O)oc2cc3c(cc12)CCCC3 | 82.2
59 | COc1ccc(OC)c(NC(=O)CS(=O)(=O)c2ccccc2)c1 | 14.3
60 | COc1ccc(OC)c(-c2cc(C(=O)Nc3c(C)n(C)n(-c4ccccc4)c3=O)no2)c1 | 49.5
61 | CCOc1ccc(S(=O)(=O)N(C(=O)c2ccco2)c2cc3sc(=O)oc3c3ccccc23)cc1 | 46.9
62 | CCC(CC)c1nnc(NC(=O)c2ccc(N3CCCCC3)c([N+](=O)[O-])c2)s1 | 44
63 | O=C(Cc1cccc2ccccc12)N/N=C/c1ccc(O)c([N+](=O)[O-])c1 | 31.6

Row | SMILES | IC90 [µM]
64 | CC(O)/C=C/c1ccc2ccccc2n1 (stereo unspecified) | 57.5
65 | COCc1cc(=O)n2[nH]cc(-c3ccccc3)c2n1 | 15.5
66 | CC(=O)Nc1ccc(Nc2ncc([N+](=O)[O-])c(Nc3ccc(NC(C)=O)cc3)n2)cc1 | 45.5
67 | Cc1cc(=O)[nH]c(N/N=C/c2c(O)n(-c3ccccc3)c(=O)c3ccccc23)n1 | 13.6
68 | Cc1ccc(C2=NN3C(=O)c4ccccc4C3C2)cc1 (stereo unspecified) | 35.1
69 | CCCc1cc(C(=O)Nc2ccc(C(C)=O)cc2)no1 | 48.8
70 | O=c1oc(-c2cccs2)nc2sc3c(c12)CCCC3 | 29.7
71 | CC(C)(C)C1=Nn2c(nnc2-c2ccccc2F)SC1 | 78.3
72 | CCC(C(=O)NC1C(=O)N2C(C(=O)O)=C(CSc3nnc(C)s3)CSC12)c1ccccc1 (stereo unspecified) | 1.57
73 | Cc1cccc(N2CCN(CC3CCCCC3)CC2)c1C | 53.2
74 | CCCOc1ccc(C(=O)N/N=C/c2ccc(-c3ccc(S(=O)(=O)Nc4ncccn4)cc3)o2)cc1 | 26.1
75 | O=C1Nc2c(ccc(Cl)c2Cl)C(=O)C1(F)c1ccccc1 (stereo unspecified) | 71.7
76 | CC1(C)CCN2CCC(C)(C)c3c(O)ccc1c32 | 49.3
77 | Cc1cccc2c(C(=O)n3cccn3)cc(-c3ccccc3Cl)nc12 | 26.8
78 | CC/C(=N\NC(=O)c1ccc(-c2ccccc2)cc1)C12CC3CC(CC(C3)C1)C2 | 43.7
79 | NNC(=S)NC1CC2CC1C1C=CCC21 (stereo unspecified) | 13.5
80 | COc1ccccc1NS(=O)(=O)c1cccc(N2CC(O)=C(c3ccccc3)C2=N)c1 | 16
81 | Cc1cc(C)n(-c2nc3ccccc3c(=O)n2OCC(=O)N(C)C)n1 | 23.3
